Target: T1, human P2X4 (Homo sapiens, UniProt Q99571)
T1 construct: expressed in transfected cells
T1 sequence (Q99571 1-388): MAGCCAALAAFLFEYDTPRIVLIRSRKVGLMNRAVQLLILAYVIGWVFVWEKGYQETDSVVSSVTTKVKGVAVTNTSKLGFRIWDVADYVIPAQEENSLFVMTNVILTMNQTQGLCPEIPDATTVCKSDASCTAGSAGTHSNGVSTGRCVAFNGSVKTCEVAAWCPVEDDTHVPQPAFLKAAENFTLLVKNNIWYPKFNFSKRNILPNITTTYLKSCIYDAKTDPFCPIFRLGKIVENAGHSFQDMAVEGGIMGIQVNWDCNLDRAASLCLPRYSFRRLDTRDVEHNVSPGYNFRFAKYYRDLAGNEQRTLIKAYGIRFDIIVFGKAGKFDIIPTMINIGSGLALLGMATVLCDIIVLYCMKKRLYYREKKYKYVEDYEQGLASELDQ
Test: Human P2X4 HEK Cell FLIPR Assay
Assay type: cell-based
Details: HEK293 stably expressing human P2X4, agonist Bz-ATP 3 μM (EC80); for IC50: read-out: Human P2X4 HEK Cells (FLIPR Assay) avg IC50
Protocol: Compounds were tested on a HEK293 cell line stably expressing human P2X4. Cells were cultured on poly-D-lysine-coated 384-well plates at a density of 15,000 cells/well and incubated overnight at 37° C., 5% CO2. P2X4 function was assessed by measuring intracellular calcium fluxes caused by Benzoylbenzoyl-ATP (Bz-ATP) using the calcium-chelating dye Fluo8-AM (Molecular Devices) with the Fluorescent Imaging Plate Reader Tetra (FLIPR^Tetra; Molecular Devices CA). On the day of the assay, the medium was removed and the cells were incubated for 30 min at 37° C. and 5% CO2 in 30 μl of dye buffer (Hank's balanced salt solution, 10 mM HEPES, 1.8 mM CaCl2, 1 mM MgCl2, 2 mM probenecid, 5 mM D-glucose monohydrate, 5 μM Fluo8-AM, pH=7.4). Compounds diluted in probenecid buffer (Hank's balanced salt solution, 10 mM HEPES, 1.8 mM CaCl2, 1 mM MgCl2, 2 mM probenecid, 5 mM D-glucose monohydrate, pH=7.4) at ten concentrations ranging from 25 μM to 1 nM (final concentration) were dispensed and incubated for 30 min at room temperature. […] The final assay volume was 50 μl and final DMSO concentration was 0.5%.
The fluorescence intensity reflecting intracellular calcium changes was recorded before and after Bz-ATP addition, at an excitation and emission wavelengths of 470-495 nm and 515-575 nm respectively.
The compounds were tested in triplicates and fluorescence intensity raw data normalized to the agonist control and fitted to the four-parameter logistic equation:
Y=Bottom+(Top−Bottom)/(1+10^((Log IC50−X)*HillSlope))
Assay plate acceptance was based on the signal window (S/B)[…] and the reference compound pIC50 within ±3σ the mean of historic pIC50 of the compound. Failure to meet two of the three criteria determined exclusion of the plate's results.

Row | SMILES | Human P2X4 HEK Cells (FLIPR Assay) avg Efficacy [%] | IC50 [nM]
1 | CC(=O)N(c1cccc(C(F)F)c1)c1cc(NC(=O)Cc2ccc(F)cc2Cl)ccn1 [Example 3, N-{4-[2-(2-chloro-4-fluorophenyl)acetamido]pyridin-2-yl}-N-[3-(difluoromethyl)phenyl]acetamide] | 98 | 657
2 | CC(=O)N(c1cccc(C(F)(F)F)c1)c1cc(NC(=O)Cc2ccccc2Cl)ccn1 [Example 6, N-{4-[2-(2-chlorophenyl)acetamido]pyridin-2-yl}-N-[3-(trifluoromethyl)phenyl]acetamide] | 97 | 689
3 | CC(=O)N(c1cccc(C(F)(F)F)c1)c1cc(NC(=O)Cc2ccc(F)cc2Cl)ccn1 [Example 7, N-{4-[2-(2-chloro-4-fluorophenyl)acetamido]pyridin-2-yl}-N-[3-(trifluoromethyl)phenyl]acetamide] | 97 | 846
4 | CC(=O)N(c1cccc(C(F)(F)F)c1)c1cc(NC(=O)Cc2cccc(F)c2Cl)ccn1 [Example 8, N-{4-[2-(2-chloro-3-fluorophenyl)acetamido]pyridin-2-yl}-N-[3-(trifluoromethyl)phenyl]acetamide] | 97 | 681
5 | CC(=O)N(c1cccc(C(F)(F)F)c1)c1cc(NC(=O)Cc2c(Cl)cccc2Cl)ccn1 [Example 9, N-{4-[2-(2,6-dichlorophenyl)acetamido]pyridin-2-yl}-N-[3-(trifluoromethyl)phenyl]acetamide] | 99 | 749
6 | CC(=O)N(c1ccc(C#N)c(C(F)(F)F)c1)c1cc(NC(=O)Cc2ccccc2Cl)ccn1 [Example 10, N-{4-[2-(2-chlorophenyl)acetamido]pyridin-2-yl}-N-[4-cyano-3-(trifluoromethyl)phenyl]acetamide] | 94 | 
7 | CC(=O)N(c1ccc(C#N)c(C(F)(F)F)c1)c1cc(NC(=O)Cc2cccc(F)c2Cl)ccn1 [Example 11, N-{4-[2-(2-chloro-3-fluorophenyl)acetamido]pyridin-2-yl}-N-[4-cyano-3-(trifluoromethyl)phenyl]acetamide] | 100 | 
8 | CC(=O)N(c1ccc(C#N)c(C(F)(F)F)c1)c1cc(NC(=O)Cc2c(Cl)cccc2Cl)ccn1 [Example 12, N-[4-cyano-3-(trifluoromethyl)phenyl]-N-{4-[2-(2,6-dichlorophenyl)acetamido]pyridin-2-yl}acetamide] | 101 | 
9 | CC(=O)N(c1ccc(Cl)c(C#N)c1)c1cc(NC(=O)Cc2ccccc2Cl)ccn1 [Example 16, N-(4-chloro-3-cyanophenyl)-N-{4-[2-(2-chlorophenyl)acetamido]pyridin-2-yl}acetamide] | 95 | 388
10 | CC(=O)N(c1ccc(Cl)c(C#N)c1)c1cc(NC(=O)Cc2ccc(F)cc2Cl)ccn1 [Example 17, N-(4-chloro-3-cyanophenyl)-N-{4-[2-(2-chloro-4-fluorophenyl)acetamido]pyridin-2-yl)acetamide] | 99 | 638
11 | CC(=O)N(c1ccc(Cl)c(C#N)c1)c1cc(NC(=O)Cc2cccc(F)c2Cl)ccn1 [Example 18, N-(4-chloro-3-cyanophenyl)-N-{4-[2-(2-chloro-3-fluorophenyl)acetamido]pyridin-2-yl}acetamide] | 99 | 437
12 | CC(=O)N(c1ccc(Cl)c(C#N)c1)c1cc(NC(=O)Cc2c(Cl)cccc2Cl)ccn1 [Example 19, N-(4-chloro-3-cyanophenyl)-N-{4-[2-(2,6-dichlorophenyl)acetamido]pyridin-2-yl}acetamide] | 103 | 542
13 | CC(=O)N(c1ccc(F)c(C#N)c1)c1cc(NC(=O)Cc2cccc(C(F)(F)F)c2Cl)ccn1 [Example 20, N-(4-{2-[2-chloro-3-(trifluoromethyl)phenyl]acetamido}pyridin-2-yl)-N-(3-cyano-4-fluorophenyl)acetamide] | 99 | 748
14 | CC(=O)N(c1ccccc1)c1cc(NC(=O)Cc2c(F)cccc2Cl)ccn1 [Example 28, N-{4-[2-(2-chloro-6-fluorophenyl)acetamido]pyridin-2-yl}-N-phenylacetamide] | 91 | 777
15 | CC(=O)N(c1ccc(F)cc1)c1cc(NC(=O)Cc2ccc(Cl)cc2C(F)(F)F)ccn1 [Example 31, N-(4-{2-[4-chloro-2-(trifluoromethyl)phenyl]acetamido}pyridin-2-yl)-N-(4-fluorophenyl)acetamide] | 100 | 909
16 | CC(=O)N(c1ccc(F)cc1)c1cc(NC(=O)Cc2cccc(C(F)(F)F)c2Cl)ccn1 [Example 35, N-(4-{2-[2-chloro-3-(trifluoromethyl)phenyl]acetamido}pyridin-2-yl)-N-(4-fluorophenyl)acetamide] | 99 | 938
17 | CC(=O)N(c1ccc(C)cc1)c1cc(NC(=O)Cc2ccccc2Cl)ccn1 [Example 43, N-{4-[2-(2-chlorophenyl)acetamido]pyridin-2-yl}-N-(4-methylphenyl)acetamide] | 100 | 406
18 | CC(=O)N(c1ccc(C)cc1)c1cc(NC(=O)Cc2ccc(F)cc2Cl)ccn1 [Example 44, N-{4-[2-(2-chloro-4-fluorophenyl)acetamido]pyridin-2-yl}-N-(4-methylphenyl)acetamide] | 99 | 607
19 | CC(=O)N(c1ccc(C)cc1)c1cc(NC(=O)Cc2c(Cl)cccc2Cl)ccn1 [Example 46, N-{4-[2-(2,6-dichlorophenyl)acetamido]pyridin-2-yl}-N-(4-methylphenyl)acetamide] | 103 | 551
20 | CC(=O)N(c1ccc(OC(F)F)cc1)c1cc(NC(=O)Cc2ccccc2Cl)ccn1 [Example 47, N-{4-[2-(2-chlorophenyl)acetamido]pyridin-2-yl}-N-[4-(difluoromethoxy)phenyl]acetamide] | 98 | 519
21 | CC(=O)N(c1ccc(OC(F)F)cc1)c1cc(NC(=O)Cc2cccc(F)c2Cl)ccn1 [Example 48, N-{4-[2-(2-chloro-3-fluorophenyl)acetamido]pyridin-2-yl}-N-[4-(difluoromethoxy)phenyl]acetamide] | 99 | 579
22 | CC(=O)N(c1ccc(OC(F)F)cc1)c1cc(NC(=O)Cc2c(Cl)cccc2Cl)ccn1 [Example 49, N-{4-[2-(2,6-dichlorophenyl)acetamido]pyridin-2-yl}-N-[4-(difluoromethoxy)phenyl]acetamide] | 100 | 520
23 | CC(=O)N(c1ccc(Cl)c(F)c1)c1cc(NC(=O)Cc2c(Cl)cccc2Cl)ccn1 [Example 61, N-(4-chloro-3-fluorophenyl)-N-{4-[2-(2,6-dichlorophenyl)acetamido]pyridin-2-yl)acetamide] | 98 | 604
24 | CCc1cc(Cl)c(CC(=O)Nc2ccnc(N(C(C)=O)c3ccc(F)c(F)c3)c2)c(Cl)c1 [Example 75, N-{4-[2-(2,6-dichloro-4-ethylphenyl)acetamido]pyridin-2-yl}-N-(3,4-difluorophenyl)acetamide] | 96 | 919
